According to patent publication US9290478B2, “Substituted quinoxalines as FGFR kinase inhibitors” (ASTEX THERAPEUTICS LTD, priority 2010, dated 2016):

Legend:
FGFR1 (h) = FGFR1 (h) (Homo sapiens, UniProt P11362); test: FGFR1 (enzymatic assay), TR-FRET; assay type: biochemical; conditions: 5 μM ATP; read-out: FGFR1 pIC50 (converted)
Protocol: (§1) In a final reaction volume of 30 μL, FGFR1 (h) (25 ng/ml) was incubated with 50 mM HEPES pH 7.5, 6 mM MnCl2, 1 mM DTT, 0.1 mM Na3VO4, 0.01% Triton-X-100, 500 nM Btn-Flt3 and 5 μM ATP in the presence of compound (1% DMSO final). After incubation for 60 minutes at room temperature the reaction was stopped with 2.27 nM EU-anti P-Tyr, 7 mM EDTA, 31.25 nM SA-XL-665 and 0.02% BSA which was present for 60 minutes at room temperature. Time-Resolved Fluorescence Resonance Energy Transfer (TR-FRET) signal (ex340 nm. Em 620 nm, em 655 nm) was measured afterwards and results are expressed in RFU (Relative Fluorescence Units). In this assay, the inhibitory effect of different compound concentrations (range 10 μM to 0.1 nM) was determined and used to calculate an IC50 (M) and pIC50 (−log IC50) value.

FGFR4 (h) = FGFR4 (h) (Homo sapiens, UniProt P22455); test: FGFR4 (enzymatic assay), TR-FRET; assay type: biochemical; conditions: 5 μM ATP; read-out: FGFR4 pIC50 (converted)
Protocol: as §1, with “FGFR4” for “FGFR1”, “(60” for “(25”

[1] = target: T1, Ba/F3-FGFR1-transfected cells (Homo sapiens, UniProt P11362); test: Ba/F3-FGFR1 (minus IL3 or plus IL3) cellular proliferation assay; assay type: cell-based; conditions: minus IL3
T1 construct: BAF3-FGFR1 (MIN IL3) pIC50; other: minus IL3
Protocol: (§2) Ba/F3-FGFR1 (Minus IL3 or Plus IL3) (Cellular Proliferation Assay)
(§3) In a 384 well plate, 100 nl of compound dilution in DMSO was sprayed before adding 50 μl cell culture medium (phenol red free RPMI-1640, 10% FBS, 2 mM L-Glutamine and 50 μg/ml Gentamycin) containing 20000 cells per well of Ba/F3-FGFR1-transfected cells. Cells were put in an incubator at 37° C. and 5% CO2. After 24 hours, 10 μl of Alamar Blue solution (0.5 mM K3Fe(CN)6, 0.5 mM K4Fe(CN)6, 0.15 mM Resazurin and 100 mM Phosphate Buffer) was added to the wells, incubated for 4 hours at 37° C. and 5% CO2 before RFU's (Relative Fluorescence Units) (ex. 540 nm., em. 590 nm.) were measured in a fluororescence plate reader.
(§4) In this assay, the inhibitory effect of different compound concentrations (range 10 μM to 0.1 nM) was determined and used to calculate an IC50 (M) and pIC50 (−log IC50) value.
(§5) As a counterscreen the same experiment was performed in the presence of 10 ng/ml murine IL3.

[2] = test system: Ba/F3-FGFR1-transfected cells; test: as above; assay type: cell-based; conditions: plus 10 ng/ml murine IL3 (counterscreen); for IC50: 24 h, read-out: BAF3-FGFR1 (PLUS IL3) pIC50 (converted)
Protocol: as §2, §3, §4, §5

[3] = target: T2, Ba/F3-FGFR3-transfected cells (Homo sapiens, UniProt P22607); test: Ba/F3-FGFR3 (minus IL3 or plus IL3) cellular proliferation assay; assay type: cell-based; conditions: minus IL3
T2 construct: BAF3-FGFR3 (MIN IL3) pIC50; other: minus IL3
Protocol: (§6) Ba/F3-FGFR3 (Minus IL3 or Plus IL3) (Cellular Proliferation Assay)
as §3, with “nI” for “nl”, “Ba/F3-FGFR3-transfected” for “Ba/F3-FGFR1-transfected”
(§7) In this assay, the inhibitory effect of different compound concentrations (range 10 μM to 0.1 nM) was determined and used to calculate an IC50 (M) and pIC50 (−log IC50) value. As a counterscreen the same experiment was performed in the presence of 10 ng/ml murine IL3.

[4] = test system: Ba/F3-FGFR3-transfected cells; test: as above; assay type: cell-based; conditions: plus 10 ng/ml murine IL3 (counterscreen); for IC50: 24 h, read-out: BAF3-FGFR3 (PLUS IL3) pIC50 (converted)
Protocol: as §6
as §3, with “nI” for “nl”, “Ba/F3-FGFR3-transfected” for “Ba/F3-FGFR1-transfected”
as §7

[5] = target: T3, Ba/F3-KDR-transfected cells (Homo sapiens, UniProt P35968); test: Ba/F3-KDR (minus IL3 or plus IL3) cellular proliferation assay; assay type: cell-based; conditions: minus IL3
T3 construct: BAF3-KDR (MIN IL3) pIC50; other: minus IL3
Protocol: (§8) Ba/F3-KDR (Minus IL3 or Plus IL3) (Cellular Proliferation Assay)
as §3, with “nI” for “nl”, “Ba/F3-KDR-transfected” for “Ba/F3-FGFR1-transfected”
as §7

[6] = test system: Ba/F3-KDR-transfected cells; test: as above; assay type: cell-based; conditions: plus 10 ng/ml murine IL3 (counterscreen); for IC50: 24 h, read-out: BAF3-KDR (PLUS IL3) pIC50 (converted)
Protocol: as §8
as §3, with “nI” for “nl”, “Ba/F3-KDR-transfected” for “Ba/F3-FGFR1-transfected”
as §7

T2 sequence (P22607 whole entry, change not shown): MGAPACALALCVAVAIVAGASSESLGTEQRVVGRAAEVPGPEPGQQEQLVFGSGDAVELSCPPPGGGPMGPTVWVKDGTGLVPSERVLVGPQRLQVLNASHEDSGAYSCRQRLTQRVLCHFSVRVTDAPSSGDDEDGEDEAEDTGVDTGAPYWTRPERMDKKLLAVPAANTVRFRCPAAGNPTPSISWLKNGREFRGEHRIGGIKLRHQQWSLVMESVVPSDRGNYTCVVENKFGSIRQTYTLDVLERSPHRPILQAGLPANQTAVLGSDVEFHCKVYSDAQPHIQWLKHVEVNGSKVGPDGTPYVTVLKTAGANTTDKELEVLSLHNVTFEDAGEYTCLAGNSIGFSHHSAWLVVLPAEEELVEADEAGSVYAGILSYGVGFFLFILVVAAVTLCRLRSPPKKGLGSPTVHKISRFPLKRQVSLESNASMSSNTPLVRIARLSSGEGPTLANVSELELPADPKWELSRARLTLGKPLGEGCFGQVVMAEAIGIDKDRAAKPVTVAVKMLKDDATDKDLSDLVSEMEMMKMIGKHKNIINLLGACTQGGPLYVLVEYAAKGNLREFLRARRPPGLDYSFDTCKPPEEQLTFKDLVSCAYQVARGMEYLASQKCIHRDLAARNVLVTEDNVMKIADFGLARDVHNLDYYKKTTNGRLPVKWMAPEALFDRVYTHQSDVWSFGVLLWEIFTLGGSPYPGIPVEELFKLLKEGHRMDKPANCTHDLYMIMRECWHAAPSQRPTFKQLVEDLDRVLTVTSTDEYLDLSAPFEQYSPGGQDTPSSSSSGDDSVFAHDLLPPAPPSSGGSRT
T3 sequence (P35968 whole entry, change not shown): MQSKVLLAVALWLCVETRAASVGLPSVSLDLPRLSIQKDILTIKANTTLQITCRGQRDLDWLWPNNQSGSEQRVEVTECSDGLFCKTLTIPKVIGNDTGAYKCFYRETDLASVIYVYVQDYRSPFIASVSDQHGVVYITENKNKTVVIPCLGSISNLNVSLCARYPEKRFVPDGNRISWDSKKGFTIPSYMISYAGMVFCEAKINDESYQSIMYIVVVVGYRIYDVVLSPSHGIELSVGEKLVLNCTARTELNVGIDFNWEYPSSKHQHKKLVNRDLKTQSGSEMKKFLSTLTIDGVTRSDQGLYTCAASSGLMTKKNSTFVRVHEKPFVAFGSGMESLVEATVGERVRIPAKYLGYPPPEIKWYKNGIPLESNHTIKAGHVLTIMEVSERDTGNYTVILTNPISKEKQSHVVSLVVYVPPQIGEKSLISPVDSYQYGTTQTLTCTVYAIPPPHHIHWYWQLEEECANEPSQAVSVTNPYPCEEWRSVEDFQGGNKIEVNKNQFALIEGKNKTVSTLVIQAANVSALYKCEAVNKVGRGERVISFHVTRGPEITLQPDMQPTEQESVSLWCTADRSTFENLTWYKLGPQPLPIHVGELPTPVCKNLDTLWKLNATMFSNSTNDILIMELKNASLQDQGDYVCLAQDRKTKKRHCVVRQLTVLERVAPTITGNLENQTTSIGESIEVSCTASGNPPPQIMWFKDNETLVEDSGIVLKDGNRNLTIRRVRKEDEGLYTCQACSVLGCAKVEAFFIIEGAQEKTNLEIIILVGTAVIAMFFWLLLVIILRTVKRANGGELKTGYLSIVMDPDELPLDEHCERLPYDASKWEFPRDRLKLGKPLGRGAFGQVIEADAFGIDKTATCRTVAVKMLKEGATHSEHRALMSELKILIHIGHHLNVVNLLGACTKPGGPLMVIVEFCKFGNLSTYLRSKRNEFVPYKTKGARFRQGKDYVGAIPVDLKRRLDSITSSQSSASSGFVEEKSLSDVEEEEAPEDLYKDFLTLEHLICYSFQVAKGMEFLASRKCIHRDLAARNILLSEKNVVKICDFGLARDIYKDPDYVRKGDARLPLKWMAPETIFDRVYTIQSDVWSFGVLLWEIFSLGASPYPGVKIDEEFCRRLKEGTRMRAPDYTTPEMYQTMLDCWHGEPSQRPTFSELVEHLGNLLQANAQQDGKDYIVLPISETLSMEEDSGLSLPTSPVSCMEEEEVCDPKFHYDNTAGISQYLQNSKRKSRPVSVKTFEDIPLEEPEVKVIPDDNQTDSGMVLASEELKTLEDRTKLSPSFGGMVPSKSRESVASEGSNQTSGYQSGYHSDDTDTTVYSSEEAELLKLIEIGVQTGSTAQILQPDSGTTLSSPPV
Chain of FGFR4 (h) (P22455 22-802): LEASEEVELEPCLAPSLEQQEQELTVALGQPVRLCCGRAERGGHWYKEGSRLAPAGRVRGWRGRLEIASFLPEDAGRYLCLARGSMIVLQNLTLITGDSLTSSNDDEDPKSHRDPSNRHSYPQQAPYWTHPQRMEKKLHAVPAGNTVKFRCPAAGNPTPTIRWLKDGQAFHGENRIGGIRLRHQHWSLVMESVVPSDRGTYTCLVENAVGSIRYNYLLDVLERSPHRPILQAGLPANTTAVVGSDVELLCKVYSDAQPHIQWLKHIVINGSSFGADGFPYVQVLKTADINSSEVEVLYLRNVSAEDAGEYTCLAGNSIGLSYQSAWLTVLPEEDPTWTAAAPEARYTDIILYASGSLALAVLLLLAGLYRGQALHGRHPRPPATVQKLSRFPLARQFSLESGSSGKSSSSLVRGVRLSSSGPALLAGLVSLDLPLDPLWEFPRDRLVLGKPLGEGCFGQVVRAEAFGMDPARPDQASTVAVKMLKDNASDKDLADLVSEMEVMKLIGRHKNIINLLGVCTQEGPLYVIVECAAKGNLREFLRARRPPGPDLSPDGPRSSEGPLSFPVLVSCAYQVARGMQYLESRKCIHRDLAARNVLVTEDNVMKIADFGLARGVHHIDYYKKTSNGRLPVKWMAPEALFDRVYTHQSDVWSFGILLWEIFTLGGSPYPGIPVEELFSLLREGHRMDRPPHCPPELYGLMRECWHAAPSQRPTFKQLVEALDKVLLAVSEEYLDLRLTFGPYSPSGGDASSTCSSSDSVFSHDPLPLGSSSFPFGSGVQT
T1 sequence (P11362 whole entry, change not shown): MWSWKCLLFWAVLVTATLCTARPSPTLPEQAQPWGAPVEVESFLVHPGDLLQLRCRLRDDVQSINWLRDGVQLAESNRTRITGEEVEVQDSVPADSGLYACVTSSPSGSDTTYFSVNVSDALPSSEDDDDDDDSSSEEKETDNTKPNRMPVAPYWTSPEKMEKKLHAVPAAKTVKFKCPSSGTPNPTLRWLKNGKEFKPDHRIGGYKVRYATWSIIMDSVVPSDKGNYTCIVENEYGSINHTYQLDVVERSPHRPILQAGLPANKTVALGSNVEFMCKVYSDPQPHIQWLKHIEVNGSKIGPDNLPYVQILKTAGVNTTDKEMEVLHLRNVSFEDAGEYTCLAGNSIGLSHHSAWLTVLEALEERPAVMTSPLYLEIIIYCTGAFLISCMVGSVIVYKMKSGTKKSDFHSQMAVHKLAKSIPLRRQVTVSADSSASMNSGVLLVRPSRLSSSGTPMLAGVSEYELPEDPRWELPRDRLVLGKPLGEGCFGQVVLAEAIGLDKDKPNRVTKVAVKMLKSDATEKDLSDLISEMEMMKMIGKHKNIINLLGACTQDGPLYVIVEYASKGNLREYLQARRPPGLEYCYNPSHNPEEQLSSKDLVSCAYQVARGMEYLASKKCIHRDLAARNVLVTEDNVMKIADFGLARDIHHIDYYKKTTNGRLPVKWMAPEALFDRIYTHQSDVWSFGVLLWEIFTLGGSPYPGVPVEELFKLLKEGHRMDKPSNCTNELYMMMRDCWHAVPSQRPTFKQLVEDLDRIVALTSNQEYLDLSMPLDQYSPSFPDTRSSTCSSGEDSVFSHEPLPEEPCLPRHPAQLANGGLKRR
Chain of FGFR1 (h) (P11362 22-822): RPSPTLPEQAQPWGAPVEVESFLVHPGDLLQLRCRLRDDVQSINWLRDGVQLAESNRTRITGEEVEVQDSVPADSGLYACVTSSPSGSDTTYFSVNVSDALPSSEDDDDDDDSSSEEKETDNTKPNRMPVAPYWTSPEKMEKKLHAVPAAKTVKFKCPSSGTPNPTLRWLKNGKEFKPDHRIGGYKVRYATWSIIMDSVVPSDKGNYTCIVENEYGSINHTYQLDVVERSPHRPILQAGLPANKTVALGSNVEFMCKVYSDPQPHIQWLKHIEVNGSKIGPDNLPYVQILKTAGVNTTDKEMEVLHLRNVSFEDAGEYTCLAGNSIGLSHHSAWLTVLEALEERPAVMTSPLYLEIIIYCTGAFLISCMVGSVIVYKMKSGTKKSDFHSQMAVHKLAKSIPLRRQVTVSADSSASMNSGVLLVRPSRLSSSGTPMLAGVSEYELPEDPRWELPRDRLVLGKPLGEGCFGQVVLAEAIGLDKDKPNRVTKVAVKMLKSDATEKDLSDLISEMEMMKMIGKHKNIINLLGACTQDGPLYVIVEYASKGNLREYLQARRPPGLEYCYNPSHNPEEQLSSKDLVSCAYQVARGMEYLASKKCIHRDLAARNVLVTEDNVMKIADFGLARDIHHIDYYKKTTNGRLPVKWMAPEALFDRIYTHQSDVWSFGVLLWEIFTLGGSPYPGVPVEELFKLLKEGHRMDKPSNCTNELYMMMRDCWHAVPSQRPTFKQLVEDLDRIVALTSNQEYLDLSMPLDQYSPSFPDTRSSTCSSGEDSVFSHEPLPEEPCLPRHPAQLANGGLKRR

SMILES | IC50 (FGFR1 (h)) [nM] | IC50 (FGFR4 (h)) [nM] | BAF3-FGFR1 (MIN IL3) pIC50 [1] | BAF3-FGFR3 (MIN IL3) pIC50 [3] | BAF3-KDR (MIN IL3) pIC50 [5] | BAF3-FGFR1 (PLUS IL3) pIC50 [2] | BAF3-FGFR3 (PLUS IL3) pIC50 [4] | BAF3-KDR (PLUS IL3) pIC50 [6] | IC50 [2] [nM] | IC50 [4] [nM] | IC50 [6] [nM]
COc1cc(OC)cc(/C(=C/CNC(C)C)c2ccc3ncc(-c4cnn(C)c4)nc3c2)c1 [Compound 9] | 60.3 | 1480 | 6.51 | 6.82 | <5 | – | – | – | > 10000 | > 10000 | > 10000
COc1cc(OC)cc(C(CCO)c2ccc3ncc(-c4cnn(C)c4)nc3c2)c1 (stereo not shown) [Compound 22] | 107 | 513 | 5.66 | 5.65 | <5 | – | – | – | > 10000 | > 10000 | > 10000
Cn1cc(-c2cnc3ccc(C(O)c4ccccc4)cc3n2)cn1 (stereo not shown) [Compound 28] | ~1510 | 8510 | <5 | <5 | <5 | – | – | – | > 10000 | > 10000 | > 10000
COc1cc(OC)cc(C(CCNC(C)C)c2ccc3ncc(-c4cnn(C)c4)nc3c2)c1.Cl (stereo not shown) [Compound 29, {3-(3,5-Dimethoxy-phenyl)-3-[3-(1-methyl-1H-pyrazol-4-yl)-quinoxalin-6-yl]-propyl}-isopropyl-amine] | 22.9 | 275 | 6.18 | 6.44 | <5 | – | – | – | > 10000 | > 10000 | > 10000
COc1cc(OC)cc(C(CCN(C)C)c2ccc3ncc(-c4cnn(C)c4)nc3c2)c1.Cl (stereo not shown) [Compound 21] | 37.2 | 355 | 5.95 | 6.32 | <5 | – | – | – | > 10000 | > 10000 | > 10000
COc1cc(OC)cc(C(CCN2CCCC2=O)c2ccc3ncc(-c4cnn(C)c4)nc3c2)c1.Cl (stereo not shown) [Compound 7] | 56.2 | 158 | 5.52 | 5.8 | 5.13 | – | – | – | > 10000 | > 10000 | > 10000
COc1cc(OC)cc(C(O)(CNCCNC(C)C)c2ccc3ncc(-c4cnn(C)c4)nc3c2)c1 (single isomer, unassigned) [Compound 5] | 603 | > 1000 | <5 | <5 | <5 | – | – | – | > 10000 | > 10000 | > 10000

Now from value to compound, other results behind:

IC50 (FGFR1 (h)) [nM] | IC50 (FGFR4 (h)) [nM] | BAF3-FGFR1 (MIN IL3) pIC50 [1] | BAF3-FGFR3 (MIN IL3) pIC50 [3] | BAF3-KDR (MIN IL3) pIC50 [5] | SMILES | BAF3-FGFR1 (PLUS IL3) pIC50 [2] | BAF3-FGFR3 (PLUS IL3) pIC50 [4] | BAF3-KDR (PLUS IL3) pIC50 [6] | IC50 [2] [nM] | IC50 [4] [nM] | IC50 [6] [nM]
661 | 5500 | 5.14 | ~5.03 | <5 | COc1cc(OC)cc(C(CCNC(C)C)c2ccc3ncc(-c4cnn(C)c4)nc3c2)c1 (single isomer, unassigned) [Compound 32a] | <5 | <5 | <5 | – | – | –
490 | > 1000 | 5 | 5.27 | <5 | COc1cc(OC)cc(C(CCCN)c2ccc3ncc(-c4cnn(C)c4)nc3c2)c1.Cl (stereo not shown) [Compound 40] | – | – | – | > 10000 | > 10000 | > 10000
91.2 | 479 | 5.23 | 5.63 | <5 | COc1cc(OC)cc(C2(c3ccc4ncc(-c5cnn(C)c5)nc4c3)CC2)c1 [Compound 30] | – | – | – | > 10000 | > 10000 | > 10000
> 1000 | > 1000 | <5 | <5 | <5 | CN(C)CCC(c1ccccc1)c1ccc2ncc(-c3cnn(C)c3)nc2c1 (stereo not shown) [Compound 35] | – | – | – | > 10000 | > 10000 | > 10000
